Experimental data from ChEMBL document CHEMBL1144786, “synthesis and biological evaluation of fully functionalized seco-pancratistatin analogues” (2008).
Values after ≈ are worked out from the molar mass of the structure shown.

Columns and labels:
[1] = test system: P388; experiment: Cytotoxicity against mouse P388 cells; type: functional; details: read-out: ED50 (the source's name)
[2] = test system: MCF7; experiment: Cytotoxicity against human MCF7 cells; type: functional; details: read-out: ED50 (the source's name)

Structure (SMILES) | EC50 [1] | EC50 [2]
O=C1N[C@H]2[C@H](O)[C@H](O)CC[C@@H]2c2cc3c(cc21)OCO3 | 1.39 µg/mL (≈ 5.01 µM) | –
O=C1N[C@H]2C[C@H](O)[C@@H](O)C[C@@H]2c2cc3c(cc21)OCO3 | 0.45 µg/mL (≈ 1.62 µM) | –
CC1(C)O[C@@H]([C@H](O)[C@@H](CNC(=O)c2ccccc2)c2ccc3c(c2)OCO3)[C@H](CO)O1 | – | > 30 µg/mL
O=C(NC[C@@H](c1ccc2c(c1)OCO2)[C@@H](O)[C@H](O)[C@@H](O)CO)c1ccccc1 | – | > 30 µg/mL
O=C1N[C@H]2[C@H](O)[C@H](O)[C@@H](O)[C@H](O)[C@@H]2c2cc3c(c(O)c21)OCO3 [PANCRATISTATIN] | 0.039 µg/mL (≈ 0.12 µM) | –
